From ChEMBL document CHEMBL1140768, “Constituents of Brazilian red propolis and their preferential cytotoxic activity against human pancreatic PANC-1 cancer cell line in nutrient-deprived condition” (2008) come the findings set out here.

The assay has as its system PANC-1. The assay can be described thus: Cytotoxicity against human PANC1 cells in nutrient deprived medium after 24 hrs. It is filed as functional.

`COc1cc(O)ccc1[C@H]1COc2cc(O)ccc2C1`: the CD100 was >100 µM.

With `O=C1c2ccc(O)cc2O[C@H](c2ccccc2)[C@H]1O`, the CD100 is >100 µM.

Consider `O=C(c1ccc(O)cc1O)[C@@H](O)Cc1ccc(O)cc1`, for which the CD100 was >100 µM.

For the molecule `C=C[C@@H](c1ccccc1)c1cc(O)c(OC)cc1OC`, the CD100 is >100 µM.

On to `COc1ccc([C@H]2COc3cc(O)ccc3C2)c(O)c1`, for which the CD100 was >100 µM.

Regarding `COc1ccc([C@H]2COc3cc(O)ccc3C2=O)c(O)c1`, the CD100 was >100 µM.

For `COc1ccc2c(c1O)O[C@@H]1c3ccc(O)cc3OC[C@H]21`, the CD100 came to 50 µM.

On to `COc1ccc2c(C)c(-c3ccc(O)cc3O)oc2c1`, for which the CD100 came to 50 µM.

On to `COc1ccc2c(c1)O[C@H]1c3ccc(O)c(O)c3OC[C@@H]21`, for which the CD100 amounted to 25 µM.

Consider `COc1cc(O)ccc1C(=O)/C=C/c1ccc(O)cc1`, for which the CD100 was >100 µM.

Consider `COc1ccc([C@H]2COc3cc(O)ccc3C2=O)c(OC)c1O`, for which the CD100 was >100 µM.

Consider `O=C1c2ccc(O)cc2OC1(O)Cc1ccc(O)cc1` (centres undefined), for which the CD100 is >100 µM.

For `COc1cc2c(cc1O)O[C@H](c1ccccc1)[C@@H](O)C2=O`, the CD100 was >100 µM.

`COc1ccc([C@H]2COc3cc(OC)ccc3C2)c(O)c1` yielded a CD100 of 25 µM.

With `CCO[C@@]12COc3cc(O)ccc3[C@@H]1Oc1cc(OC)ccc12`, the CD100 was >100 µM.

Turning to `O=C1C[C@@H](c2ccccc2)Oc2cc(O)c(O)c(O)c21`, the CD100 is >100 µM.

As for `COc1cc2c(cc1O)O[C@H](c1ccccc1)CC2=O`, the CD100 was 50 µM.

As for `O=C1C[C@@H](c2ccccc2)Oc2cc(O)ccc21`, the CD100 is >100 µM.

With `COc1ccc(-c2coc3cc(O)cc(O)c3c2=O)c(O)c1`, the CD100 is >100 µM.

For `COc1ccc([C@H]2COc3cc(O)cc(O)c3C2=O)c(O)c1`, the CD100 was >100 µM.

For the molecule `COc1ccc2c(c1)O[C@H]1c3ccc(O)c(OC)c3OC[C@@H]21`, the CD100 is >100 µM.

Molecule `COc1ccc2c(c1)O[C@@H]1c3ccc(O)cc3OC[C@H]21` returned a CD100 of 50 µM.

Consider `O=C(/C=C/c1ccccc1)c1ccc(O)cc1O` [2',4'-DIHYDROXYCHALCONE], for which the CD100 was >100 µM.

With `COc1ccc([C@H]2OC[C@H]3[C@@H]2CO[C@@H]3c2ccc(OC)c(OC)c2)cc1OC` [(+)-EUDESMIN], the CD100 was >100 µM.

With `COc1cc([C@@H]2OC[C@@H]3[C@H]2CO[C@H]3c2ccc(O)c(OC)c2)ccc1O` [(+)-PINORESINOL], the CD100 is >100 µM.

Turning to `COc1c(O)cc2oc(-c3ccccc3)c(O)c(=O)c2c1O` [ALNUSIN], the CD100 is >100 µM.

Turning to `COc1c(O)cc2c(c1O)C(=O)[C@H](O)[C@@H](c1ccccc1)O2` [ALNUSTINOL], the CD100 is >100 µM.

On to `COc1cc(C[C@H]2C(=O)OC[C@@H]2Cc2ccc(OC)c(OC)c2)ccc1O` [ARCTIGENIN], for which the CD100 worked out at 1 µM.

Take `COc1ccc(-c2coc3cc(O)cc(O)c3c2=O)cc1` [BIOCHANIN]: the CD100 is >100 µM.

Take `COc1ccc(-c2coc3cc(O)ccc3c2=O)cc1O` [CALYCOSIN]: the CD100 is >100 µM.

Consider `O=c1c(-c2ccc(O)cc2)coc2cc(O)ccc12` [DAIDZEIN], for which the CD100 was >100 µM.

On to `COc1c(O)cc2c(c1O)C(=O)C[C@@H](c1ccccc1)O2` [DIHYDROOROXYLIN A], for which the CD100 was >100 µM.

For `O=c1[nH]cc(F)c(=O)[nH]1` [FLUOROURACIL], the CD100 was >100 µM.

`COc1ccc(-c2coc3cc(O)ccc3c2=O)cc1` [FORMONONETIN]: the CD100 was >100 µM.

`O=C1c2ccc(O)cc2O[C@H](c2ccc(O)cc2)[C@H]1O` [GARBANZOL]: the CD100 is >100 µM.

`O=C(/C=C/c1ccc(O)cc1)c1ccc(O)cc1O` [ISOLIQUIRITIGENIN]: the CD100 was >100 µM.

Take `O=C1C[C@@H](c2ccc(O)cc2)Oc2cc(O)ccc21` [LIQUIRTIGENIN]: the CD100 is >100 µM.

For `COc1ccc([C@H]2COc3cc(O)ccc3C2)c(OC)c1O` [MUCRONULATOL], the CD100 is >100 µM.

As to `O=C1C[C@@H](c2ccc(O)cc2)Oc2cc(O)cc(O)c21` [NARINGENIN], the CD100 is >100 µM.

For the molecule `CC(=O)O[C@H]1C(=O)[C@@]2(C)[C@H]([C@H](OC(=O)c3ccccc3)[C@]3(O)C[C@H](OC(=O)[C@H](O)[C@@H](NC(=O)c4ccccc4)c4ccccc4)C(C)=C1C3(C)C)[C@]1(OC(C)=O)CO[C@@H]1C[C@@H]2O` [PACLITAXEL], the CD100 is >100 µM.

For the molecule `COc1ccc(-c2coc3cc(O)cc(O)c3c2=O)cc1O` [PRATENSEIN], the CD100 is >100 µM.

With `COc1cc2c(cc1OC)[C@@H]1COc3cc(O)ccc3[C@@H]1O2` [SECUNDIFLOROL I], the CD100 was >100 µM.

As for `COc1cc([C@H]2OC[C@H]3[C@@H]2CO[C@@H]3c2cc(OC)c(O)c(OC)c2)cc(OC)c1O` [SYRINGARESINOL], the CD100 is >100 µM.

`COc1ccc(-c2coc3cc(O)ccc3c2=O)c(O)c1` [XENOGNOSIN B]: the CD100 was >100 µM.
